Paper PMC8459327, “Identification of molecular glues of the SLP76/14-3-3 protein–protein interaction” (RSC Medicinal Chemistry, 2021)
“And” between values parts separate entries of the source, which are not always exact repeats. Identical values can stand only once. “Also recorded” adds a separate entry of the source. Like-named read-outs stand apart in the source and are kept apart here.

How the values were obtained:
Assay type in all cases: binding
14-3-3ζ/p27 = 14-3-3ζ/p27 (Homo sapiens, UniProt P46527+P63104); test: HTRF dose-response assay on 14-3-3ζ/p27; settings: for Selectivity between 14-3-3γ/SLP76 and 14-3-3ζ/p27 (in words): comparison of HTRF dose-responses
Chain of 14-3-3ζ/p27 (P63104 whole entry): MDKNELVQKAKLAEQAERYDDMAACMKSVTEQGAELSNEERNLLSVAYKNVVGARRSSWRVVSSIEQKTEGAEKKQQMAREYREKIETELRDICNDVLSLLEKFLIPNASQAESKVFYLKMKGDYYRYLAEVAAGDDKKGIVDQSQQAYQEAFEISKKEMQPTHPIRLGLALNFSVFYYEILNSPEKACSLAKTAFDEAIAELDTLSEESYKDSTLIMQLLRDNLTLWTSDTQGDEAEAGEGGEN
Chain of 14-3-3ζ/p27 (P46527 whole entry): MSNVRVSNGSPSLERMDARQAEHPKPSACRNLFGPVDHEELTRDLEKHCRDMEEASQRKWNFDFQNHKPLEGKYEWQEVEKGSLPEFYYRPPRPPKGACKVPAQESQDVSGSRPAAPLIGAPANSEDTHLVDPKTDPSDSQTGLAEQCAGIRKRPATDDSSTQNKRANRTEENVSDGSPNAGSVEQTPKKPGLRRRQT
Method: (§1) 384 logistic plates were prefilled with 40 μL of compounds at 10 mM, 100% DMSO in column 3. Columns 1, 2 and 4 to 22 were filled with 20 μL of 100% DMSO with a Multidrop Dispenser (ThermoScientific). 2-Fold dilutions of the compounds were carried over from column 3 to 22, with a CyBio FeliX liquid handler (analytikjena). 2 μL of R18 peptide at 20 μM was added to columns 23 and 24 of the Corning 384-well 3574 final assay plates with a Multidrop Dispenser (ThermoScientific). 40 μL of protein mixture, containing Tb labelled 14-3-3γ at 1 nM and AF647 labelled SLP76 at 600 nM in assay buffer (50 mM Tris pH 7.5, 150 mM NaCl, 5 mM MgCl2, 0.05% v/v Tween-20) were added with a Multidrop Dispenser (ThermoScientific) into the Corning 384-well 3574 final assay plates. 2 μL of compounds along with the DMSO control were then transferred with a CyBio FeliX liquid handler (analytikjena) from the 384 logistic plates to the final Corning 384-well 3574 assay plates. […] The dose–response on the first 64 compounds was performed in singlet from a 500 μM top concentration. The repetition on the best 16 compounds was performed in duplicates from a 250 μM top concentration. A dose–response assay on an unrelated 14-3-3ζ/p27 HTRF protein pair was performed as described above. Incubation, data acquisition and normalisation were performed as described above. For EC50 estimation, the data were fitted with a “log(agonist) vs. response (three parameters)” model on GraphPad Prism version 8.1.1 for Windows, GraphPad Software, La Jolla California USA, www.graphpad.com. In the case of duplicates, each data point is the average of a duplicate measurement, standard deviation is reported as error bars.

14-3-3γ/SLP76 [1] = target: T1, 14-3-3γ/SLP76 (Homo sapiens, UniProt P61981+Q13094); test: HTRF dose-response assay on 14-3-3γ/SLP76; settings: 14-3-3γ-Tb 1 nM, SLP76-AF647 600 nM, 5% DMSO, EC50 estimated from fit
T1 sequence (Q13094 356-533): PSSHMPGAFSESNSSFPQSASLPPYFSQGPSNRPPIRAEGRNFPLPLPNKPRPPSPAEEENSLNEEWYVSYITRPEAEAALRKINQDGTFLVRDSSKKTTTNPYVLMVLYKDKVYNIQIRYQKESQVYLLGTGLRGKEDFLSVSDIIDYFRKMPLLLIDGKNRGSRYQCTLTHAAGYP
T1 sequence (P61981 whole entry): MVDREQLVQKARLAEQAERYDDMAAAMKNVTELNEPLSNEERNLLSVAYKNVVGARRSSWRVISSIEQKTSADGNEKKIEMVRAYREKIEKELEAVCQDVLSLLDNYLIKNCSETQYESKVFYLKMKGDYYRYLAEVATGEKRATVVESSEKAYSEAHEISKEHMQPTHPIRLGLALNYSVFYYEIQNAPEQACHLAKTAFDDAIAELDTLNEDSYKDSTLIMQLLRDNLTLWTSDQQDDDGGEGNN
Method: 384-Well logistic plates were prefilled with 2 μL of compounds at 2 mM, 100% DMSO, except for columns 1, 2, 23 and 24. Columns 1, 2 were filled with 2 μL of DMSO while columns 23, 24 were filled with 2 μL of the 14-3-3 inhibitor R18 at 20 μM using a Multidrop Dispenser (ThermoScientific). Next, 40 μL of protein mixture containing Tb-labelled 14-3-3γ at 1 nM and AF647 labelled SLP76 at 600 nM in assay buffer (50 mM Tris pH 7.5, 150 mM NaCl, 5 mM MgCl2, 0.05% v/v Tween-20) were added using a Multidrop Dispenser (ThermoScientific). […] To perform the assay, 30 μL volumes were then transferred using a Biomek FX^P Automated Workstation (Beckman Coulter) into Corning 384-well 3574 assay plates. The plates were incubated at room temperature with gentle shaking for 4 h. Finally, the data were collected on a PHERAstar FSX plate reader (BMG Labtech) with an λex 337 nm, λem 665 nm and 620 nm HTRF filter setting. The data were exported in IDBS ActivityBase (IDBS) where they were normalised setting the R18 negative control as 100% inhibition and the DMSO control as 0%. Negative percentage values were therefore associated with a stabilisation of the 14-3-3γ/SLP76 interaction. The threshold of −20% inhibition (or 20% stabilisation) was chosen to select the hits to follow up. The selected hits were retested on 14-3-3γ/SLP76 and were also tested against an unrelated protein pair (IL-17/receptor) in a similar assay setup. […] All the assays were performed as described above.
as §1

14-3-3γ/SLP76 [2] = target: T1, 14-3-3γ/SLP76; test: Orthogonal SPR assay, compound flowed with SLP76 over immobilised 14-3-3γ; parameters: key to SPR RU (%) mass increase 14-3-3γ/SLP76: Ns: no stabilisation observed in SPR; settings: for Stabilisation in SPR (in words): off-rate / mass on chip versus runs without compound; for SPR RU (%) mass increase 14-3-3γ/SLP76: percentage of SLP76 remained on the chip after the dissociation phase (+240 s)
Method: Of the 16 hit compounds 13 were tested in an orthogonal SPR assay in which each compound was flowed with SLP76 over 14-3-3γ immobilised on the chip. Runs at different concentrations of compound were compared to the runs in absence of compound. […] The effect of the compounds on 14-3-3γ/SLP76 was measured by calculating the percentage of SLP76 remained on the chip after the dissociation phase and immediately before: RU (%) = RU 5 s before dissociation/RU +240 s after dissociation. Dose–response curves were extrapolated from those sensorgrams plotting the RU (%) mass increase over the increase in compound concentrations.
SPR experiments were performed on a Biacore T200 (Cytiva). The Sensor Chip NTA was validated as previously reported by Soini et al.[63] A DMSO tolerance at 2% and 5% was performed in the same way (Fig. S1 ^†).
For compounds testing, the compounds were preincubated with SLP76, in final DMSO concentration of 5%. The compounds were tested at a single concentration of 100 μM and at multiple concentrations following a 3-fold dilution from a top concentration of 100 μM with SLP76 at the saturation concentration of 250 nM. A second set of experiments were performed at multiple concentrations of compound following a 3-fold dilution from a top concentration of 200 μM with SLP76 around the KD concentration of 40 nM. The SLP76/compound mixtures were flowed over the immobilised 14-3-3γ at 30 μL min^−1 for 180 s before allowing dissociation for 5 minutes. After every cycle, the chip was washed with EDTA and Ni^2+ and 14-3-3γ reinjected for the next cycle. The compound effects were measured by calculating the percentage of SLP76 remained on the chip after the dissociation phase and right before: RU (%) = RU 5 s before dissociation/RU +240 s after dissociation. RU response points relative to +240 s after dissociation were also plotted and an apparent EC50 was estimated. The data were fitted with a “One site – specific” model on GraphPad Prism version 8.1.1 for Windows, GraphPad Software, La Jolla California USA, www.graphpad.com.

[3] = stabilisation, same FRET pair, EC50 estimated from fit, read-out: HTRF EC50 14-3-3ζ/p27
[4] = stabilisation, read-out: HTRF EC50 14-3-3γ/SLP76

Structure (SMILES) | Stabilisation of 14-3-3ζ/p27 in HTRF (in words) (14-3-3ζ/p27) | Selectivity between 14-3-3γ/SLP76 and 14-3-3ζ/p27 (in words) (14-3-3ζ/p27) | EC50 (14-3-3ζ/p27; [3]) [µM] | EC50 (14-3-3γ/SLP76 [1]; [4]) | Stabilisation in SPR (in words) (14-3-3γ/SLP76 [2]) | SPR RU (%) mass increase 14-3-3γ/SLP76 (14-3-3γ/SLP76 [2]) | Selectivity for 14-3-3ζ/p27 over 14-3-3γ/SLP76 (14-3-3ζ/p27; ratio of HTRF EC50s) [fold] | EC50 (14-3-3ζ/p27) [µM] | EC50 (14-3-3γ/SLP76 [1]; HTRF EC50 14-3-3γ/SLP76, stabilisation) [µM]
O=C1OC[C@@H]2CCN(Cc3ccccc3)Cc3ccccc3N12 [Compound 1, (6S)-9-benzyl-4-oxa-2,9-diazatricyclo[9.4.0.02,6]pentadeca-1(11),12,14-trien-3-one] | no observed stabilisation | selective for the 14-3-3γ/SLP76 interaction | > 250 | 19.1 ± 7.7 µM | orthogonally confirmed and equipotent by SPR | 66.4% |  |  | 
COc1ccccc1-c1nnc2scnn12 [Compound 9, 3-(2-methoxyphenyl)-[1,2,4]triazolo[3,4-b][1,3,4]thiadiazole] |  | modest level of selectivity in stabilising 14-3-3ζ/p27 over 14-3-3γ/SLP76 | 5.8 ± 2.2 | 24.5 ± 5.8 µM | orthogonally confirmed by SPR | 58.7% |  |  | 
CC(C)CNC(=O)c1ccc2c(c1)nc1n2CCN(C(C)C)C1=O [Compound 12, N-(2-methylpropyl)-1-oxo-2-propan-2-yl-3,4-dihydropyrazino[1,2-a]benzimidazole-8-carboxamide] |  |  | 0.43 ± 0.37 | 3.2 µM and 3.8 µM | orthogonally confirmed by SPR | 67.4% | ~9 |  | 
CC1=Nn2c(nnc2-c2ccoc2C)SC1 [Compound 10, 6-methyl-3-(2-methylfuran-3-yl)-7H-[1,2,4]triazolo[3,4-b][1,3,4]thiadiazine] |  | modest level of selectivity in stabilising 14-3-3ζ/p27 over 14-3-3γ/SLP76 | 16.5 ± 10.6 | 70.1 ± 8.7 µM | no observable stabilisation | Ns ^d |  |  | 
Fc1ccc(OCc2nn3c(Cn4cnc5ccccc54)nnc3s2)cc1 [Compound 8, 3-(benzimidazol-1-ylmethyl)-6-[(4-fluorophenoxy)methyl]-[1,2,4]triazolo[3,4-b][1,3,4]thiadiazole] |  | weak and equipotent stabiliser of both the 14-3-3γ/SLP76 and 14-3-3ζ/p27 systems | 53.9 ± 17.1 | 69.1 ± 22.6 µM | orthogonally confirmed by SPR | 61.2% |  |  | 
COc1ccc(C(=O)N2C[C@@H]3CN(CCO3)C(=O)[C@@H]3C[C@@H](CN3Cc3ccc4c(c3)OCO4)NC(=O)C[C@@H]3O[C@H](C2)[C@@H](O)[C@H]3O)cc1 [Compound 4, (3S,6S,10S,11R,12S,13R,17R)-4-(1,3-benzodioxol-5-ylmethyl)-11,12-dihydroxy-15-(4-methoxybenzoyl)-18,22-dioxa-1,4,7,15-tetrazatetracyclo[15.3.1.13,6.110,13]tricosane-2,8-dione] |  | selective for the 14-3-3γ/SLP76 system | > 250 | 17.4 ± 4.9 µM | orthogonally confirmed by SPR; also recorded: orthogonally confirmed in the SPR assay | 57.1% |  |  | 
O=C(c1ccc(Cl)cc1)n1c(Cn2nnc(-c3cccc4ccccc34)n2)n[nH]c1=S [Compound 16, (4-chlorophenyl)-[3-[(5-naphthalen-1-yltetrazol-2-yl)methyl]-5-sulfanylidene-1H-1,2,4-triazol-4-yl]methanone] |  |  | 80.6 ± 53.4 | 1.2 ± 0.7 µM |  |  |  |  | 
O=C(Cn1nc(C(F)(F)F)c2c1CCCC2)Nc1ccc(Cl)c(Cl)c1 [Compound 14, N-(3,4-dichlorophenyl)-2-[3-(trifluoromethyl)-4,5,6,7-tetrahydroindazol-1-yl]acetamide] |  |  | 12.6 ± 14.4 | 21.2 ± 11.3 µM | not confirmed in the SPR assay | Ns ^d |  |  | 
Cc1ccc(-c2ccc3c(n2)C(=N)NC3CCc2ccc(O)cc2)o1 (stereo not shown) [Compound 11, 4-[2-[7-imino-2-(5-methylfuran-2-yl)-5,6-dihydropyrrolo[3,4-b]pyridin-5-yl]ethyl]phenol] |  |  | 129 ± 70.5 | 29.7 ± 21.8 µM |  |  |  |  | 
S=c1[nH]nc(Cn2nnc3ccccc32)o1 [Compound 13, 5-(benzotriazol-1-ylmethyl)-1,3,4-oxadiazole-2-thiol] |  |  | > 250 | 4.9 ± 1.1 µM |  | Ns ^d |  |  | 
CC(C)N1CC[C@H]2COC(=O)N2c2cc(F)ccc2C1 [Compound 2, (6S)-14-fluoro-9-propan-2-yl-4-oxa-2,9-diazatricyclo[9.4.0.02,6]pentadeca-1(15),11,13-trien-3-one] | no observed stabilisation | selective for the 14-3-3γ/SLP76 interaction | > 250 | 18.6 ± 5.5 µM | orthogonally confirmed and equipotent by SPR | 67.6% |  |  | 
CC(=O)CSc1nc2c(c(=O)[nH]c(=O)n2C)n1Cc1cccc(C)c1 [Compound 15, 3-methyl-7-[(3-methylphenyl)methyl]-8-(2-oxopropylsulfanyl)purine-2,6-dione] |  |  | 11.6 ± 6.1 | 17.1 ± 5.2 µM |  |  |  |  | 
COc1ccc2c(c1)[C@]1(CC[N+](C)(C)CC(=O)OC(C)(C)C)CCCC[C@@H]1C=C2 [Compound 6, 2-[(4aS,10aR)-6-methoxy-2,3,4,10a-tetrahydro-1H-phenanthren-4a-yl]ethyl-dimethyl-[2-[(2-methylpropan-2-yl)oxy]-2-oxoethyl]azanium] |  | selective over 14-3-3ζ/p27 |  |  | no observable stabilisation effect | Ns ^d |  | > 250 | 33.5 ± 10.7
